Values of other authors, collected in patent US7250518B2, “Nicotinamide acids, amides, and their mimetics active as inhibitors of PDE4 isozymes” (Pfizer Inc., priority 2001, dated 2007).
Where two headings read alike, the source gives them in different places.

Assays:
[1] = system: lipopolysaccharide-induced bowel erythrocyte extravasation; conditions: rats, i.p. 3× pretreatment
[2] = system: antigen-induced lung eosinophilia, BAL eosinophilia, AHR; conditions: guinea-pig
[3] = in vivo
[4] = system: high-affinity rolipram binding site (Sr)
[5] = system: antigen-induced bronchoconstriction; conditions: guinea-pig
[6] = system: seratonin-induced bronchoconstriction; conditions: dog
[7] = system: dextran sulfate induced colitis; conditions: rat
[8] = system: histamine- and antigen-induced bronchoconstriction, eosinophilia, AHR; conditions: guinea-pig
[9] = system: experimental allergic encephalomyelitis; conditions: marmoset
[10] = system: PHA stimulated atopic dermatitis PBMC; conditions: read-out: IC50, inhibition of PHA stimulated atopic dermatitis PBMC proliferation
[11] = system: collagen II induced arthritis
[12] = system: chronic relapsing experimental allergic encephalomyelitis; conditions: SJL mice
[13] = system: T-cell mediated hepatic failure
[14] = system: croton oil-induced ear inflammation; conditions: mouse
[15] = system: PHA stimulated normal PBMC; conditions: read-out: IC50, inhibition of PHA stimulated normal PBMC proliferation
[16] = system: human peripheral blood mononuclear cells (HPBM); conditions: normal patients and subjects with atopic dermatitis
[17] = system: TNF release and lymphocyte proliferation; conditions: oral dose of 300 mg
TNF-α and IL-6 levels = conditions: 1 mg/kg/hr over 24 hours
rhinorrhea = conditions: antigen-challenged pig
PDE4 in U937 cells = conditions: read-out: IC50 as PDE4 inhibitor in U937 cells
[18] = system: antigen-induced eosinophilia; conditions: rat
[19] = rat
[20] = 54 subjects, doses up to 400 mg
[21] = rat; remark: listed apart in the source
epidermal basal cells = conditions: primary culture
psoriatic lesions = conditions: two double-blind studies versus vehicle
[22] = system: keratomed psoriatic epidermis; conditions: over controls
canine tracheal PDE4 = conditions: at 100 nM
TNF production = conditions: read-out: IC50 as an inhibitor of TNF production
rheumatoid arthritis = conditions: 35 patients, t.i.d., placebo-controlled
guinea-pig lung PDE4 = conditions: read-out: IC50 against guinea-pig lung PDE4
[23] = system: PDE4 derived from tumor cells; conditions: read-out: IC50 against a PDE4 derived from tumor cells
inflammatory parameters = conditions: topical, bilaterally over eight days, twenty patients
[24] = system: in vitro guinea-pig models of asthma; conditions: read-out: IC50 in standard in vitro guinea-pig models of asthma
[25] = system: antigen-induced bronchospasm; conditions: rat
[26] = system: bronchoconstriction, BAL eosinophilia, AHR; conditions: in vivo
[27] = system: bone mineral density of femurs; conditions: serial oral administrations
[28] = system: lipopolysaccharide-induced mesenteric blood flow fall; conditions: inhibiting lipopolysaccharide-induced mesenteric blood flow fall
[29] = oral 5, 10, and 15 mg b.id., week 2
[30] = COPD patients, 15 mg b.i.d., week 6
[31] = system: late reactions to inhaled allergen; conditions: 9.5 days oral, 15 and 30 mg, bronchial asthma patients

CCCCn1c(=O)c2c(ncn2CC(C)=O)n(CCCC)c1=O [debufylline]
Effect on lipopolysaccharide-induced bowel erythrocyte extravasation [1]: reduces

COc1ccc(C(=O)Nc2c(Cl)cncc2Cl)cc1OC1CCCC1 [RP-73,401]
Inhibition of antigen-induced lung and BAL eosinophilia, EPO, PAF- and ozone-induced AHR, IL-5 induced pleural eosinophila [2]: active | Emesis, nausea and vomiting [3]: elicit emesis | Affinity at the Sr [4]: high affinity

CCCn1c(=O)c2[nH]cnc2n(-c2ccc(Cl)cc2)c1=O [LAS-31025]
Inhibition of antigen-induced bronchoconstriction [5]: active

COc1ccc(/C(C)=N/OC(N)=O)cc1OC1CCCC1 [WAY-PDA-641]
Inhibition of seratonin-induced bronchoconstriction [6]: active

CCCn1c(=O)c2[nH]cnc2n(-c2ccc(Cl)cc2)c1=O [LAS31025]
Effect in dextran sulfate induced colitis [7]: beneficial effects comparable to prednisolone

O=c1c2[nH]cnc2c2cccnc2n1-c1ccccc1 [KF17625]
Inhibition of histamine- and antigen-induced bronchoconstriction, PAF- and antigen-induced eosinophilia, AHR, bronchospasm [8]: activity

COc1ccc(C2CNC(=O)C2)cc1OC1CCCC1 (stereo not shown) [rolipram]
Effect on lipopolysaccharide-induced bowel erythrocyte extravasation [1]: reduces | Effect on clinical signs [9]: suppress the appearance of clinical signs | IC50 [10]: 280 nM | Effect on appearance of arthritic symptoms ([11]; 2 mg/kg twice daily for five days before onset of arthritis): significantly delayed the appearance of arthritic symptoms | Effect on development of the disease ([11]; 3 mg/kg twice daily when arthritis was apparent): progression of severity was halted | Effect on clinical signs and pathological changes [12]: ameliorates clinical signs and pathological changes | IL-10 levels ([13]; 0.1 to 10 mg/kg i.p.): significantly elevates | Plasma activities of liver enzymes ALT, AST, and SDH ([13]; 0.1 to 10 mg/kg i.p.): dose-dependently inhibited | Plasma TNF-α and INF-γ concentrations ([13]; 0.1 to 10 mg/kg i.p. 30 minutes before concanavalin A or staphylococcal enterotoxin B): significantly reduce | Effect in dextran sulfate induced colitis [7]: beneficial effects comparable to prednisolone | Topical dose inhibiting croton oil-induced ear inflammation [14]: ≥ 0.03 mg per ear | IC50 [15]: 2600 nM | Inhibition of the proliferation of HPBM [16]: concentration-related inhibition

CCNc1ncn(Cc2ccc(OC)c(OC3CCCC3)c2)c2nc(C(C)C)nc1-2 [Example V-11294A]
Effect on LPS-stimulated ex vivo TNF release and PHA induced lymphocyte proliferation [17]: effective in reducing TNF levels and lymphocyte proliferation | Inhibition of antigen-induced bronchoconstriction [5]: active

CC(=O)CCCCn1c(=O)c2c(ncn2C)n(C)c1=O [pentoxifylline]
Effect on lipopolysaccharide-induced bowel erythrocyte extravasation [1]: reduces | IL-6 levels (TNF-α and IL-6 levels): significantly increased | TNF-α levels (TNF-α and IL-6 levels): significantly lowered

CCCn1c(=O)c2c(C)nc(CC)n2c2nc(OC)ccc21 [Example D-22888]
Effect on rhinorrhea (rhinorrhea): inhibit rhinorrhea

O=c1c2cccnc2n(-c2cccc([N+](=O)[O-])c2)c(=O)n1Cc1ccncc1 [RS-23,544]
Emesis, nausea and vomiting [3]: elicit emesis | Affinity at the Sr [4]: high affinity

Cc1cc2c3c(c1)C(c1ccccc1)=N[C@@H](NC(=O)c1ccncc1)C(=O)N3CC2 [CI-1018]
IC50 (PDE4 in U937 cells): 1100 nM | Inhibition of antigen-induced eosinophilia [18]: active | Oral bioavailability [19]: 57% | Adverse events [20]: no adverse events | ED50, oral potency [21]: 5 mg/kg

COc1ccc(CC2CNC(=O)N2)cc1OC1CCCC1 (stereo not shown) [Ro 20-1724]
Increase in cAMP concentrations (epidermal basal cells): three-fold | Effect on psoriatic lesions (psoriatic lesions): improve psoriatic lesions without adverse systemic or cutaneous effects | Increase in cAMP concentration [22]: 1395%

COc1ccc(C(=O)Cc2c(Cl)c[n+]([O-])cc2Cl)c2c1OCCCCO2 [Formula (0.0.49)]
Inhibition of canine tracheal PDE4 (canine tracheal PDE4): almost complete inhibition

COc1ccc(C(CC(N)=O)N2C(=O)c3ccccc3C2=O)cc1OC1CCCC1 (stereo not shown) [Formula (0.0.32)]
IC50 (PDE4; read-out: IC50 as an inhibitor of PDE4): 0.042 nM | IC50 (TNF production): 130 nM

Nc1nc2c([nH]1)c(=O)n(CC1CC1)c(=O)n2CC1CC1 [BRL-61,063]
Emesis, nausea and vomiting [3]: adverse events of nausea and vomiting

COc1ccc(C(=O)Nc2c(Cl)cncc2Cl)cc1OC1CCCC1 [RP73401]
Clinical effect in rheumatoid arthritis (rheumatoid arthritis): positive trend towards clinical improvement

CCOc1cc2cc(CO)c(CO)c(-c3ccnc(-n4nc(-c5cccnc5)c5ccccc5c4=O)c3)c2cc1OCC [Example T-2585]
IC50 (guinea-pig lung PDE4): 0.13 nM

O=c1c2c(ncn2Cc2cccnc2)c2cccnc2n1-c1ccccc1 [KF19514]
Inhibition of histamine- and antigen-induced bronchoconstriction, PAF- and antigen-induced eosinophilia, AHR, bronchospasm [8]: activity

Clc1nc2c(N3CCCC3)nc(N3CCNCC3)nc2nc1NCc1ccccc1 [Formula (0.0.55)]
IC50 [23]: 16 nM | Concentrations inhibiting the growth of tumor cells (tumor cells): micromolar concentrations

COc1ccc(C2CNC(=O)NC2)cc1O[C@H]1C[C@@H]2CC[C@H]1C2 [atizoram]
Effect on inflammatory parameters (inflammatory parameters): effectively inhibit all of the inflammatory parameters tested

O=C(Nc1c(Cl)cncc1Cl)c1ccc(OC(F)F)c(OCC2CC2)c1 [Roflumilast]
IC50 [24]: 3.5 nM

COc1ccc(CNc2c(C)noc2C)cc1OC1CCCC1 [RPR-132294]
Inhibition of antigen-induced bronchospasm [25]: activity

CCOc1cc2cc(CO)c(CO)c(-c3ccn(CCOC)c(=O)c3)c2cc1OCC [Example T-440]
Inhibition of early and late phase bronchoconstriction, BAL eosinophilia, ozone-induced AHR and airway epithelial injury [26]: activity

CCCCn1c(=O)c2c(ncn2CC(C)=O)n(CCCC)c1=O [denbufylline]
Effect on bone mineral density of femurs [27]: inhibit the decrease in the bone mineral density | Potency relative to pentoxifylline [28]: 100 fold | Inhibition of the proliferation of HPBM [16]: concentration-related inhibition

COc1ccc([C@]2(C#N)CC[C@@H](C(=O)O)CC2)cc1OC1CCCC1 [SB-207,499]
Change in trough FEV1 from placebo [29]: significant increases | Improvement in trough FEV1 [30]: 11% | Maximum mean difference in trough FEV1 compared with placebo [30]: 160 mL | Affinity at the Sr [4]: comparatively low affinity

COc1ccc([C@H](Cc2ccncc2)c2ccccc2)cc1OC1CCCC1 [CDP840]
Effect on late reactions to inhaled allergen [31]: suppression of late reactions to inhaled allergen | Emesis, nausea and vomiting [3]: without any adverse events of nausea or headache | Affinity at the Sr [4]: comparatively low affinity

COc1ccc(C2CNC(=O)NC2)cc1O[C@H]1C[C@@H]2CC[C@H]1C2 [CP-80,633]
Emesis, nausea and vomiting [3]: elicit emesis | Affinity at the Sr [4]: high affinity

O=C(Nc1c(Cl)cncc1Cl)C(=O)c1cn(Cc2ccc(F)cc2)c2ccc(O)cc12 [AWD-12,281]
Activity in a rat model of allergic rhinitis (allergic rhinitis): active

COc1ccc(-c2nc3cnccc3o2)c2c1OC1(CCCC1)C2 [Formula (0.0.48)]
IC50 (PDE4; read-out: IC50 as PDE4 inhibitor): 2.5 nM
